Test results published in US20260115202A1, “TOPICAL COMPOSITIONS COMPRISING AN ESTETROL COMPONENT AND USE OF SAID COMPOSITIONS FOR WOUND HEALING” (NEURALIS SA, priority 2022, published 2026).

Experiments:
[1] = test system: murine dermal fibroblasts (MDF); test: qPCR gene expression in murine dermal fibroblasts; format: cell-based, mouse; details: MDF, 10^−7M, qPCR
Description: Primary human dermal fibroblasts (HDF) were isolated from abdominal skin or leg skin. Primary neonatal normal human epidermal keratinocytes (NHEK) were purchased (Lonza). Murine dermal fibroblasts (MDF), murine epidermal keratinocytes (MEK), murine peritoneal macrophages and murine bone marrow were isolated from C57/B16 (wt). NDb (Lepr+/−) or Db (Lepr−/−) mice. Fibroblasts were isolated and cultured in DMEM supplemented with 10% heat inactivated FBS. 1% penicillin/streptomycin and 1% amphotericin B. At least 4 days prior to performing assays cells were switched to DMEM supplemented with 5% charcoal-stripped FBS. Following treatments, human and murine macrophages were collected in Trizol and RNA isolated using the Trizol plus RNA isolation kit (Invitrogen. Thermo Fisher) according to the manufacturer's instructions. RNA was reverse transcribed to cDNA using GoScript reverse transcriptase (Promega). Quantitative real-time PCR was carried out using 2×Takyon SYBR Green mastermix and a CFX Connect thermocycler. Primers for ERα and ERβ were used to explore changes in ER expression after treatment of MEK and MDF with E2 and E4. To investigate the effect of E2 and E4 on MEK differentiation and the expression of ECM proteins by MDF, primers for. Snail, keratin-1 and fibronectin, collagen I. MMP-2 and MMP-9 were used. Primers for INOS. IL-1B and Tnf-α or Ccl17 were used to assess M1/M2 polarisation status. Primers for GAPDH were used to normalise data. Relative gene expression was set to vehicle controls or M0 expression unless otherwise stated. In vitro cultured murine fibroblasts were treated with either E2, E4, DPN or PPT at 10^−7M. As previously reported. […] Next, zymography was performed on cell supernatants from HDFs treated with either E2 or E4, to evaluate the effect of E2 and E4 on cell-derived MMP activity. […] The magnitude of the effect (and statistical significance) was greater in cells treated with E4. No MMP9 activity was detected in any treatment group. Finally, we explored the effect of E2 and E4 on murine fibroblast expression of extracellular matrix genes, specifically collagen 1 (Colal) and fibronectin (Fn1) (FIG. 20).

[2] = test system: mouse bone marrow derived macrophages (BMDM); test: M1-polarised murine bone marrow derived macrophages, qPCR of M1 markers; format: cell-based; details: M1 polarised BMDM, E4 10^−7M, preliminary
Protocol: Bones were flushed with DMEM supplemented with 1% penicillin/streptomycin and 1% amphotericin B. Bone marrow cells were seeded into 12- or 6-well plates at 1×10^6 cells/ml in DMEM supplemented with 10% FBS and 10% L929-conditioned medium to induce differentiation. After 7-10 days, differentiated macrophages were treated with 10^−7M E2 or E4 in serum free growth medium for 16 hours and polarised to M1-type cells using 100 ng/ml IFN-γ and 1 μg/ml LPS. Following 6- or 24-hours polarisation cells were collected for RNA isolation or flow cytometry.
Following treatments, human and murine macrophages were collected in Trizol and RNA isolated using the Trizol plus RNA isolation kit (Invitrogen. Thermo Fisher) according to the manufacturer's instructions. RNA was reverse transcribed to cDNA using GoScript reverse transcriptase (Promega). Quantitative real-time PCR was carried out using 2×Takyon SYBR Green mastermix and a CFX Connect thermocycler. Primers for ERα and ERβ were used to explore changes in ER expression after treatment of MEK and MDF with E2 and E4. To investigate the effect of E2 and E4 on MEK differentiation and the expression of ECM proteins by MDF, primers for. Snail, keratin-1 and fibronectin, collagen I. MMP-2 and MMP-9 were used. Primers for INOS. IL-1B and Tnf-α or Ccl17 were used to assess M1/M2 polarisation status. Primers for GAPDH were used to normalise data. Relative gene expression was set to vehicle controls or M0 expression unless otherwise stated.
For follow up experiments murine bone marrow derived monocytes were isolated, differentiated (L929 media) and polarised to a pro-inflammatory M1 phenotype (IFN-γ and LPS: for 6 or 24 hours), and co-treated with either E2 or E4 at the optimal concentration identified in THP1 cells (10^−7: FIG. 24). […] Experiments were then undertaken with murine bone marrow derived monocytes differentiated to macrophages with 30 ng/ml MCSF, as opposed to L929 conditioned media.

[3] = test system: human dermal fibroblasts (HDF); test: Scratch wound assay, human dermal fibroblasts; format: cell-based; details: HDF, 24 hours, preliminary
Description: Primary human dermal fibroblasts (HDF) were isolated from abdominal skin or leg skin. Primary neonatal normal human epidermal keratinocytes (NHEK) were purchased (Lonza). Murine dermal fibroblasts (MDF), murine epidermal keratinocytes (MEK), murine peritoneal macrophages and murine bone marrow were isolated from C57/B16 (wt). NDb (Lepr+/-) or Db (Lepr-/-) mice. Fibroblasts were isolated and cultured in DMEM supplemented with 10% heat inactivated FBS. 1% penicillin/streptomycin and 1% amphotericin B. At least 4 days prior to performing assays cells were switched to DMEM supplemented with 5% charcoal-stripped FBS. Cells were seeded into 24 well plates and cultured to form a confluent monolayer, and then scratched with a 1 ml pipette tip. Wells were treated with E2, E4 and/or various estrogen receptor agonists and antagonists. […] A vehicle control containing the equivalent concentration of EtOH and/or DMSO was included, in addition to an untreated negative control. All treatments were diluted to working concentrations in media supplemented with 2% charcoal-stripped FBS. To visualise scratches at the defined endpoint, cells were stained with crystal violet and imaged on a Nikon E400 brightfield microscope. Scratch closure was determined from multiple independent measurements per well. Scratch assays were performed to quantify the effect of E2 and E4 at varying concentrations on HDF migration (FIG. 14). […] 10^-7M and 10^-6M (152%. 147% and 142% respectively). Thus, both E2 and E4 optimally stimulated fibroblast scratch wound closure at 10^-8M, with the higher magnitude of stimulation observed following E2 treatment. Next, an additional experiment was performed using HDF to a) further confirm the effects of E2 and E4 in fibroblasts from a fifth donor and b) explore the relative effect of including CS-FBS in the cell culture media. Three identical sets of scratch assays were performed (comparing vehicle to E2 or E4 treatment at 10^-7M) in DMEM containing either 2% CS-FBS. 0% FBS or 2% FBS (not CS).

Row | Compound | expression of ERα and ERβ [1] | effect of ER antagonist co-treatment on E4-mediated reduction in IL1-β [2] | effect of ER antagonist co-treatment on E4-induced scratch closure [3]
1 | N#CC(Cc1ccc(O)cc1)c1ccc(O)cc1 (stereo not shown) [DPN] | increased ERβ expression |  | 
2 | Cc1c(-c2ccc(O)cc2)nn(-c2ccc(O)cc2)c1-c1ccc(OCCN2CCCCC2)cc1 [MPP, reference compound] |  | appears to block E4-induced scratch closure and E4-mediated reduction in IL1-β | appears to block E4-induced scratch closure
3 | CCCc1c(-c2ccc(O)cc2)nn(-c2ccc(O)cc2)c1-c1ccc(O)cc1 [PPT] | increased ERα |  | 
